Assay results as given in patent US8785728B2, “AAD-12 event 1606 and related transgenic soybean lines” (priority 2010, dated 2014).

How the values were obtained:
[1] = test system: soybean event pDAB4472-1606; assay: Field expression level study with 2X spray rate of 2,4-D; type: in vivo, Glycine max; details: 2X spray rate (2,240 gm ae/ha of 2,4-D); at any point of the study
Procedure: Field expression level studies at various plant stages were performed on soybean event pDAB4472-1606 at pre V3, post V3, pre R2, and post R2. Expression values were similar for all the sprayed treatments as well as for the plots sprayed and unsprayed with 2,4-D herbicide. […] Average expression across all lineages in pre V3 plant stage was 200 ug/cm^2. After spraying 2,4-D the expression remained stable averaging […] across lineages. By the time the soybeans reached pre R2 the average expression had dropped slightly to an average of 250 ug/cm^2. After spraying 2,4-D the expression post R2 had remained at the previous average of 250 ug/cm^2.

[2] = test system: soybean event pDAB4472-1606; type: in vivo, Glycine max; details: 2,4-D dimethylamine salt 2240 g ae/ha applied at V3 and R2; adjusted mean
Description: The agronomic characteristics of soybean event pDAB4472-1606 were compared to an isogenic non-transformed soybean line across diverse geographical locations during the 2009 growing season. Data were collected and analyzed for the following agronomic characteristics: • 1.) Stand count: The number of plants in a representative one meter section of each row was counted. Taking data at the VC-V2 growth stage; • 2.) Emergence: Calculated by dividing Stand count (above) by number of seeds planted in a one meter section; • 3.) Seedling Vigor at V1-V3: Vigor is an overall estimate of the health of the plant. […] Recorded in the number of days from planting date; • 8.) Stand count at R2: The number of plants in a representative one meter section of row were counted. Note taken at the R2 growth stage; • 9.) Overall visual crop injury, chlorosis and necrosis at 1 day after R2 chemical application; • 10.) Overall visual crop injury, chlorosis and necrosis at 7 days after R2 chemical application; • 11.) Overall visual crop injury, chlorosis and necrosis at 14 days after R2 chemical application. • 12.) Disease incidence (if any) at R6 growth stage: Recorded the percentage of plants affected by the disease. 0-100% scale; • 13.) Insect damage (if any) at R6 growth stage: Recorded the percentage of plant tissue in the plot damaged by insects. 0-100% scale; • 14.) Plant height at senescence: Recorded the average height of the plants in each plot. Measured plants from the soil surface to the tip after leaves had fallen. Recorded measurement in centimeters; • 15.) Days to maturity. Recorded when 95% of the pods in a plot had reached their dry down color and were at ˜15% moisture or less. Recorded in days from planting; • 16.) Lodging: Recorded lodging at harvest time. […] (All plants in a plot standing straight=1 and all plants in the plot flat=5); • 17.) Shattering: Recorded shattering at harvest time. Recorded as an estimate of number of pods shattered. […] Recorded seed weight and moisture. […]

`O=C(O)COc1ccc(Cl)cc1Cl` [2,4-D, 2,4-dichlorophenoxyacetic acid] was tested, and the “Injury on the plants” value [1] was “no significant injury was observed”, the “Overall crop injury 1 day after V3 spray” value [2] was 0.3% and the “Overall crop injury 7 days after V3 spray” value [2] was 2.1%. For the same compound, the “Overall crop injury 14 days after V3 spray” value [2] was 3.3%.
